The source of these data is patent US6911469B2, “Sulfonamide compounds and pharmaceutical use thereof” (Fujisawa Pharmaceutical Co., Ltd., priority 1997, dated 2005).

For orientation: melting point means the temperature of the solid-liquid transition.

The molecule `Cc1nc2ccc(C(=O)NS(=O)(=O)c3ccccc3)nc2n1Cc1ccc([S+](C)[O-])cc1Cl` (stereo not shown) [Example 84, 5-(benzenesulfonylcarbamoyl)-3-(2-chloro-4-(methylsulfinyl)benzyl)-2-methyl-3H-imidazo[4,5-b]pyridine] registered a melting point of 230 to 231 °C.
Next, `Cc1nc2ccc(C(=O)NS(=O)(=O)c3ccccc3)nc2n1Cc1ccc(C=O)cc1Cl` [Example 92, 5-(benzenesulfonylcarbamoyl)-3-(2-chloro-4-formylbenzyl)-2-methyl-3H-imidazo[4,5-b]pyridine]: 253 to 255 °C; `Cc1nc2ccc(C(=O)NS(=O)(=O)c3ccccc3)nc2n1Cc1ccc(C=C2SC(=O)NC2=O)cc1Cl` [Example 93, 5-(benzenesulfonylcarbamoyl)-3-[2-chloro-4-[(2,4-dioxo-1,3-thiazolidine-5-ylidene)methyl]benzyl]-2-methyl-3H-imidazo[4,5-b]pyridine]: 271 to 274 °C; `CCCCCS(=O)(=O)NC(=O)c1ccc2nc(C)n(Cc3ccc(C(F)(F)F)cc3Cl)c2n1` [Example 102-2, 3-[2-chloro-4-(trifluoromethyl)-benzyl]-2-methyl-5-(1-pentanesulfonylcarbamoyl)-3H-imidazo[4,5-b]pyridine]: 154 to 155 °C.
Then `CCCCCS(=O)(=O)NC(=O)c1cc(C)c2nc(C)n(Cc3ccc4ccccc4c3Br)c2n1` [Example 104-1, 3-(1-bromonaphthalen-2-ylmethyl)-2,7-dimethyl-5-(pentanesulfonylcarbamoyl)-3H-imidazo[4,5-b]pyridine], with 210 to 211 °C; and `Cc1cc(C(=O)NS(=O)(=O)c2ccccc2)nc2c1nc(C)n2Cc1ccc2ccccc2c1Br` [Example 104-2, 5-(benzenesulfonylcarbamoyl)-3-(1-bromonaphthalen-2-ylmethyl)-2,7-dimethyl-3H-imidazo[4,5-b]pyridine], with 229 to 230 °C; and `Cc1cc(C(=O)NS(=O)(=O)/C=C/c2ccccc2)nc2c1nc(C)n2Cc1ccc2ccccc2c1Br` [Example 104-3, (E)-3-(1-bromonaphthalen-2-ylmethyl)-2,7-dimethyl-5-((2-phenylethenyl)sulfonylcarbamoyl)-3H-imidazo[4,5-b]pyridine], with 262 to 263 °C.
Then `Cc1cc(C(=O)NS(=O)(=O)c2ccc(Cl)s2)nc2c1nc(C)n2Cc1ccc2ccccc2c1Br` [Example 104-6, 3-(1-bromonaphthalen-2-ylmethyl)-2,7-dimethyl-5-((5-chlorothiophen-2-yl)sulfonylcarbamoyl)-3H-imidazo[4,5-b]pyridine], with 213 to 214 °C; and `CCCCCS(=O)(=O)NC(=O)c1cc(C)c2nc(C)n(Cc3ccc(Br)cc3Cl)c2n1` [Example 105, 3-(4-bromo-2-chlorobenzyl)-2,7-dimethyl-5-(pentanesulfonylcarbamoyl)-3H-imidazo[4,5-b]pyridine], with 148 to 149 °C; and `Cc1cc(C(=O)NS(=O)(=O)/C=C/c2ccccc2)nc2c1nc(C)n2Cc1ccc(Br)cc1Cl` [Example 106-2, (E)-3-(4-bromo-2-chlorobenzyl)-2,7-dimethyl-5-[(2-phenylethenyl)sulfonylcarbamoyl]-3H-imidazo[4,5-b]pyridine], with 225 to 227 °C.
Molecule `Cc1cc(C(=O)NS(=O)(=O)c2ccc(Cl)s2)nc2c1nc(C)n2Cc1ccc(Br)cc1Cl` [Example 106-3, 3-(4-bromo-2-chlorobenzyl)-5-[(5-chlorothiophen-2-yl)sulfonylcarbamoyl]-2,7-dimethyl-3H-imidazo[4,5-b]pyridine] returned a melting point of 214 to 215 °C.
Then `Cc1nc2ccc(C(=O)NS(=O)(=O)c3ccccc3)nc2n1Cc1ccc(C#N)cc1Cl` [Example 108, 5-(benzenesulfonylcarbamoyl)-3-(2-chloro-4-cyanobenzyl)-2-methyl-3H-imidazo[4,5-b]pyridine], with 242 to 243 °C; and `Cc1nc2ccc(C(=O)NS(=O)(=O)/C=C/c3ccccc3)nc2n1Cc1ccc(C(F)(F)F)cc1Cl` [Example 109-1, (E)-3-(2-chloro-4-(trifluoromethyl)benzyl)-2-methyl-5-((2-phenylethenyl)sulfonylcarbamoyl)-3H-imidazo[4,5-b]pyridine], with 140 to 142 °C; and `Cc1nc2ccc(C(=O)NS(=O)(=O)c3ccc(Cl)s3)nc2n1Cc1ccc(C(F)(F)F)cc1Cl` [Example 109-3, 3-(2-chloro-4-(trifluoromethyl)-benzyl)-5-((5-chlorothiophen-2-yl)sulfonylcarbamoyl)-2-methyl-3H-imidazo[4,5-b]pyridine], with 170 to 171 °C.
Next, `Cc1nc2ccc(C(=O)NS(=O)(=O)c3ccc(Br)s3)nc2n1Cc1ccc(C(F)(F)F)cc1Cl` [Example 109-4, 5-((5-bromothiophen-2-yl)sulfonylcarbamoyl)-3-(2-chloro-4-(trifluoromethyl)benzyl)-2-methyl-3H-imidazo[4,5-b]pyridine]: 172 to 173 °C; `Cc1cc(C(=O)NS(=O)(=O)c2ccc(Br)s2)nc2c1nc(C)n2Cc1ccc2ccccc2c1Br` [Example 112, 3-(1-bromonaphthalen-2-ylmethyl)-5-((5-bromothiophene-2-yl)sulfonylcarbamoyl)-2,7-dimethyl-3H-imidazo[4,5-b]pyridine]: 247 to 248 °C; `Cc1nc2ccc(C(=O)NS(=O)(=O)c3ccccc3)nc2n1Cc1ccc(CCc2ccccc2)cc1Cl` [Example 113, 5-(benzenesulfonylcarbamoyl)-3-(2-chloro-4-(2-phenylethyl)benzyl)-2-methyl-3H-imidazo[4,5-b]pyridine]: 180 to 181 °C.
Then `Cc1nc2ccc(C(=O)NS(=O)(=O)c3ccccc3)nc2n1Cc1ccc(CO)cc1Cl` [Example 115, 5-(Benzenesulfonylcarbamoyl)-3-(2-chloro-4-(hydroxymethyl)benzyl)-2-methyl-3H-imidazo[4,5-b]pyridine], with 198 to 199 °C.
Turning to `Cc1nc2ccc(C(=O)NS(=O)(=O)c3ccccc3)nc2n1Cc1ccc(C(=O)O)cc1Cl` [Example 116, 5-(benzenesulfonylcarbamoyl)-3-(4-carboxy-2-chlorobenzyl)-2-methyl-3H-imidazo[4,5-b]pyridine], the melting point lay in the range of 155 to 160 °C.
`Cc1nc2ccc(C(=O)NS(=O)(=O)c3ccccc3)nc2n1Cc1ccc(COc2ccccc2)cc1Cl` [Example 118, 5-(benzenesulfonylcarbamoyl)-3-(2-chloro-4-((phenyloxy)methyl)-benzyl)-2-methyl-3H-imidazo[4,5-b]pyridine]: the melting point lay in the range of 203 to 205 °C.
Next, `CCOC(=O)c1ccc(Cn2c(C)nc3ccc(C(=O)NS(=O)(=O)c4ccccc4)nc32)c(Cl)c1` [Example 119, 5-(benzenesulfonylcarbamoyl)-3-(2-chloro-4-(ethoxycarbonyl)benzyl)-2-methyl-3H-imidazo[4,5-b]pyridine]: 196 to 197 °C.
Next, `CNC(=O)c1ccc(Cn2c(C)nc3ccc(C(=O)NS(=O)(=O)c4ccccc4)nc32)c(Cl)c1` [Example 120, 5-(Benzenesulfonylcarbamoyl)-3-(2-chloro-4-(methylcarbamoyl)benzyl)-2-methyl-3H-imidazo[4,5-b]pyridine]: 257 to 260 °C.
Next, `Cc1cc(C(=O)NS(=O)(=O)c2ccccc2)nc2c1nc(C)n2Cc1ccc(Br)cc1Cl` [Example 121, 5-(Benzenesulfonylcarbamoyl)-3-(4-bromo-2-chlorobenzyl)-2,7-dimethyl-3H-imidazo[4,5-b]pyridine]: 231 to 232 °C.
`CSc1ccc(Cn2c(C)nc3ccc(C(=O)NS(=O)(=O)/C=C/c4ccccc4)nc32)c(Cl)c1` [Example 148, 3-(2-chloro-4-(methylthio)benzyl)-2-methyl-5-(E)-[(2-phenylethenyl)sulfonylcarbamoyl]-3H-imidazo[4,5-b]pyridine] showed a melting point of 175 to 176 °C.
Then `CSc1ccc(Cn2c(C)nc3ccc(C(=O)NS(=O)(=O)c4ccc(Cl)s4)nc32)c(Cl)c1` [Example 149, 3-(2-chloro-4-(methylthio)benzyl)-5-[(5-chlorothiophen-2-yl)sulfonylcarbamoyl]-2-methyl-3H-imidazo[4,5-b]pyridine], with 170 to 171 °C.
In turn, `CSc1ccc(Cn2c(C)nc3ccc(C(=O)NS(=O)(=O)c4ccc(Br)s4)nc32)c(Cl)c1` [Example 150, 3-[2-chloro-4-(methylthio)benzyl]-5-[(5-bromothiophen-2-yl)sulfonylcarbamoyl]-2-methyl-3H-imidazo[4,5-b]pyridine] gave a melting point of 169 to 170 °C.
`CCCCCS(=O)(=O)NC(=O)c1ccc2nc(C)n(Cc3ccc(SC)cc3Cl)c2n1` [Example 151, 3-(2-chloro-4-(methylthio)benzyl)-2-methyl-5-(1-pentanesulfonylcarbamoyl)-3H-imidazo[4,5-b]pyridine] gave a melting point of 184 to 185 °C.
With `CCCCCS(=O)(=O)NC(=O)c1cc(C)c2nc(C)n(Cc3ccc(-c4ccccc4)cc3Cl)c2n1` [Example 184, 3-(2-chloro-4-phenylbenzyl)-2,7-dimethyl-5-(1-pentanesulfonylcarbamoyl)-3H-imidazo[4,5-b]pyridine], the melting point was in the range of 227 to 228 °C.
In turn, `Cc1cc(C(=O)NS(=O)(=O)c2ccc(Cl)s2)nc2c1nc(C)n2Cc1ccc(-c2ccccc2)cc1Cl` [Example 185, 3-(2-chloro-4-phenylbenzyl)-5-[(5-chlorothiophen-2-yl)sulfonylcarbamoyl]-2,7-dimethyl-3H-imidazo[4,5-b]pyridine] displayed a melting point of 241 to 242 °C.
Then `Cc1cc(C(=O)NS(=O)(=O)c2ccc(Br)s2)nc2c1nc(C)n2Cc1ccc(-c2ccccc2)cc1Cl` [Example 186, 5-[(5-bromothiophen-2-yl)sulfonylcarbamoyl]-3-(2-chloro-4-phenylbenzyl)-2,7-dimethyl-3H-imidazo[4,5-b]pyridine], with 243 to 244 °C; and `CCCCCS(=O)(=O)NC(=O)c1cc(C)c2nc(C)n(Cc3ccc(-c4cccs4)cc3Cl)c2n1` [Example 188, 3-[2-chloro-4-(thiophen-2-yl)benzyl]-2,7-dimethyl-5-(1-pentanesulfonylcarbamoyl)-3H-imidazo[4,5-b]pyridine], with 220 to 224 °C.
